In one assay the test system is Escherichia coli. As to the kind of experiment: Antibacterial activity against Escherichia coli KCTC 1924 by microdilution broth method. The class given is functional.
A further assay concerns Staphylococcus aureus. The assay can be described thus: Antibacterial activity against Staphylococcus aureus RN4220 by microdilution broth method. The format is functional. For orientation: Dilution methods test growth across graded concentrations, often in twofold steps.
For the next assay, the system named is Bacillus subtilis. The assay can be described thus: Antibacterial activity against Bacillus subtilis KCTC 1021 by microdilution broth method. The class given is functional.
Another assay deals with T1, Peptide deformylase (Staphylococcus aureus, UniProt P68826).
T1 sequence (P68826 whole entry): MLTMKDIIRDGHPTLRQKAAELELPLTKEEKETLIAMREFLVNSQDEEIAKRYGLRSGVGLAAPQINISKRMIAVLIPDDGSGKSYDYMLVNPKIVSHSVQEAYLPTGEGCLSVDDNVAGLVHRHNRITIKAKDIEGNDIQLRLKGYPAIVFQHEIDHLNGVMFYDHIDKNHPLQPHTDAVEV
As to the kind of experiment: Inhibition of Staphylococcus aureus peptide deformylase in presence of substrate f-MAS.

Structures are written as SMILES. pIC50: −log10 of the molar value. ≈ marks a conversion by molar mass, not a printed value.

`CC1CCC/C=C/CCC(=O)CCC/C=C\C=C\[C@@H](O)C/C=C/C=C\C(=O)O1` (some centres undefined) had an MIC against Escherichia coli of 100 µg/mL (≈ 259 µM). Moreover, the MIC50 against Staphylococcus aureus and in the assay with Bacillus subtilis was 100 µg/mL (≈ 259 µM) each time. Further, on Peptide deformylase, the pIC50 is 5.12.

For orientation: MIC means the smallest concentration in the dilution series that meets the test's criterion for growth inhibition. A low value points to a more susceptible organism. Usually MIC50 stands for the lowest concentration that inhibits either 50% of growth or 50% of the strains tested, depending on the study. Low readings indicate higher susceptibility, high ones lower susceptibility. The pIC50 is −log10 of the IC50, conventionally taken in molar units.

The values above are taken from ChEMBL document CHEMBL1137265, “Macrolactin N, a new peptide deformylase inhibitor produced by Bacillus subtilis” (Bioorg Med Chem Lett, 2006).
